Results published in patent publication US20130142882A1, “METHODS AND COMPOSITIONS FOR TREATMENT, MODIFICATION AND MANAGEMENT OF BONE CANCER PAIN” (GOLDEN BIOTECHNOLOGY CORPORATION, priority 2011, published 2013).

Test system: rat model of bone cancer pain (Walker 256 rat mammary gland carcinoma cells injected into the right tibia)
Assay: Mechanical allodynia (Von Frey test) in a rat model of bone cancer pain
Format: in vivo, Rat (Sprague-Dawley)
Conditions: 30 μg/kg s.c. every second day
Experimental: The objective of this study was to assess the potential anti-nociceptive and anti-tumourigenic effects of Compound 1, at doses of 15, 30 and 45 mg/kg, in an animal model of bone cancer pain. Metastasis of cancer cells to the bone was modeled by injecting Walker 256 rat mammary gland carcinoma cells into the medullary cavity of the right tibia (Mao-Yinga, et al. A rat model of bone cancer pain induced by intra-tibia inoculation of Walker 256 mammary gland carcinoma cells. Biochem Biophys Res Commun 2006; 345: 1292-1298). The development of mechanical allodynia was monitored using an established behavioural test (Von Frey test). Treatment administration was chronic, from the day of surgery, and administered twice daily for 21 days to determine whether there was a prophylactic effect on the development of mechanical allodynia. Zoledronic acid was used as a reference substance. No regulatory test guidelines were applicable to this study.
Rats have been studied in this model of bone cancer pain. The route of administration of Compound 1 and vehicle was oral. The doses of Compound 1 were 15, 30 and 45 mg/kg, twice a day (approximately 10 h apart) for 21 days.
The dose of zoledronic acid was 30 μg/kg, as a single administration, every second day from the day of surgery, based on historical data. The route of administration of zoledronic acid was subcutaneous.
The dose volume for test substance and vehicle treatments was 5 mL/kg. The vehicle for Compound 1 was corn oil. Each rat allocated to test substance or vehicle treatments received an oral dose, by gavage, twice daily (approximately 8 am and 6 pm) for 21 consecutive days. The dose volume for the reference substance treatment was 1 mL/kg. Each rat allocated to reference substance treatment received a single subcutaneous dose, by injection (approximately 8 am) every second day from the day of surgery.
Cell preparation. Walker 256 rat mammary gland carcinoma cells (obtained from the American Type Culture Collection (ATCC)) were harvested from sub-confluent cultures growing in vitro and the number of viable cells determined. Cells were then re-suspended in sterile phosphate buffered saline (PBS) at a concentration of 4×10^5 cells. Female Sprague-Dawley rats were intratibially injected in the right leg with 4×10^5 Walker 256 rat mammary gland carcinoma cells in a volume of 6 μL as detailed in Surgical procedure below.
Baseline behavioural testing. The rats were moved to the procedure room 5 days prior to behavioural testing. The rats were then housed, dosed and observed in the procedure room. The behavioural test was performed on all rats on 2 separate occasions prior to surgery, to establish baseline values. Pre-surgery baseline values were taken as the data from the final (second) day of testing (the data from the first day of testing was not included but classed as part of the acclimatisation).
Mechanical allodynia (Von Frey test): Each animal was placed in a wire mesh cage and a series of Von Frey filaments were applied to the plantar surface of the hind paw, from below. The filaments were applied in ascending order (starting with the weakest force), and the withdrawal threshold for both the left and right hind paws were evaluated. Each filament was indented on the mid-plantar surface of the foot to the point where it just started to bend; this was repeated approximately 8 to 10 times per filament at a frequency of approximately 1 Hz. The withdrawal threshold was defined as the lowest force of two or more consecutive Von Frey filaments to elicit a reflex withdrawal response (i.e. a brief paw flick).
Surgical procedure. The animals were surgically prepared over 2 days. Each rat was anaesthetised as necessary with isofluorane in […]. The surface around the incision site was shaved and sterilised. Under aseptic conditions, an incision was made in the skin over the top of the right tibia to expose the tibia head with minimal damage. […]

With O=P(O)(O)C(O)(Cn1ccnc1)P(=O)(O)O [Zoledronic acid, reference compound] the “Withdrawal Threshold (Log 10 (force (g) × 10 000)) on Day Post-Operative” value (Day 6, left paw) was 5.35 Log 10 (force (g) × 10 000), the “Withdrawal threshold (g) on day post-operative” value (“Withdrawal threshold (g)” for short) (Day 6, left paw) was 22.55 g and the “Withdrawal Threshold (Log 10 (force (g) × 10 000)) on Day Post-Operative” value (Day 6, right paw) was 5.28 Log 10 (force (g) × 10 000). For the same compound, the “Withdrawal threshold (g)” value (Day 6, right paw) was 19.49 g, the “Withdrawal Threshold (Log 10 (force (g) × 10 000)) on Day Post-Operative” value (Day 12, left paw) was 5.17 Log 10 (force (g) × 10 000) and the “Withdrawal threshold (g)” value (Day 12, left paw) was 15.14 g. The “Withdrawal Threshold (Log 10 (force (g) × 10 000)) on Day Post-Operative” value (Day 12, right paw) was 4.98 Log 10 (force (g) × 10 000), the “Withdrawal threshold (g)” value (Day 12, right paw) was 9.95 g and the “Withdrawal Threshold (Log 10 (force (g) × 10 000)) on Day Post-Operative” value (Day 14, left paw) was 5.15 Log 10 (force (g) × 10 000). For the same compound, the “Withdrawal threshold (g)” value (Day 14, left paw) was 15.02 g, the “Withdrawal Threshold (Log 10 (force (g) × 10 000)) on Day Post-Operative” value (Day 14, right paw) was 4.99 Log 10 (force (g) × 10 000) and the “Withdrawal threshold (g)” value (Day 14, right paw) was 10.28 g. For the same compound, the “Withdrawal Threshold (Log 10 (force (g) × 10 000)) on Day Post-Operative” value (Day 19, left paw) was 5.14 Log 10 (force (g) × 10 000), the “Withdrawal threshold (g)” value (Day 19, left paw) was 14.66 g and the “Withdrawal Threshold (Log 10 (force (g) × 10 000)) on Day Post-Operative” value (Day 19, right paw) was 4.97 Log 10 (force (g) × 10 000). The “Withdrawal threshold (g)” value (Day 19, right paw) was 10.37 g, the “Withdrawal Threshold (Log 10 (force (g) × 10 000)) on Day Post-Operative” value (Day 21, left paw) was 5.15 Log 10 (force (g) × 10 000) and the “Withdrawal threshold (g)” value (Day 21, left paw) was 15.46 g. The “Withdrawal threshold (g)” value (Day 21, left paw, listed as zoledronic acid) was 15.46 ± 2.06 g, the “Withdrawal Threshold (Log 10 (force (g) × 10 000)) on Day Post-Operative” value (Day 21, right paw) was 5.04 Log 10 (force (g) × 10 000) and the “Withdrawal threshold (g)” value (Day 21, right paw) was 13.25 g. For the same compound, the “Withdrawal threshold (g)” value (Day 21, right paw, listed as zoledronic acid) was 13.25 ± 2.28 g, the “Withdrawal Threshold (Log 10 (force (g) × 10 000)) on Day Post-Operative” value (Pre-Surgery, left paw) was 5.32 Log 10 (force (g) × 10 000) and the “Withdrawal threshold (g)” value (Pre-Surgery, left paw) was 21.02 g. The “Withdrawal Threshold (Log 10 (force (g) × 10 000)) on Day Post-Operative” value (Pre-Surgery, right paw) was 5.30 Log 10 (force (g) × 10 000) and the “Withdrawal threshold (g)” value (Pre-Surgery, right paw) was 20.26 g.
